Laboratory results from patent publication US10407422B2, “Triazolopyridine inhibitors of myeloperoxidase” (priority 2015, dated 2019).

Key:
[1] = target: T1, myeloperoxidase (MPO) (Homo sapiens (Human), UniProt P05164); experiment: MPO peroxidation assay (Amplex Red assay); assay type: biochemical; details: potency range class
In short: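 IC50 values come from a four-parameter fit of rates taken from the linear 180-540 s portion of a 15 min kinetic read of resorufin (Ex 535/Em 590 nm). Amplex Red (200 μM) plus 10 mM H2O2 was added after a 10 min room-temperature preincubation of inhibitor with 200 pM MPO and 40 nM H2O2 in 100 mM KPi, pH 7.4.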

[2] = target: T1, myeloperoxidase (MPO); experiment: MPO chlorination assay (APF assay); assay type: biochemical; details: potency range class
In short: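 Chlorinating activity followed by APF cleavage to fluorescein (485/535 nm, 3 min kinetic read) after adding APF and 10 μM H2O2. Beforehand, 200 pM enzyme, compound and 120 mM NaCl sat 10 min at room temperature in 100 mM KPi, pH 7.4. Initial-rate slopes gave % inhibition; IC50 by Hill-slope fit.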

T1 sequence (P05164 49-745): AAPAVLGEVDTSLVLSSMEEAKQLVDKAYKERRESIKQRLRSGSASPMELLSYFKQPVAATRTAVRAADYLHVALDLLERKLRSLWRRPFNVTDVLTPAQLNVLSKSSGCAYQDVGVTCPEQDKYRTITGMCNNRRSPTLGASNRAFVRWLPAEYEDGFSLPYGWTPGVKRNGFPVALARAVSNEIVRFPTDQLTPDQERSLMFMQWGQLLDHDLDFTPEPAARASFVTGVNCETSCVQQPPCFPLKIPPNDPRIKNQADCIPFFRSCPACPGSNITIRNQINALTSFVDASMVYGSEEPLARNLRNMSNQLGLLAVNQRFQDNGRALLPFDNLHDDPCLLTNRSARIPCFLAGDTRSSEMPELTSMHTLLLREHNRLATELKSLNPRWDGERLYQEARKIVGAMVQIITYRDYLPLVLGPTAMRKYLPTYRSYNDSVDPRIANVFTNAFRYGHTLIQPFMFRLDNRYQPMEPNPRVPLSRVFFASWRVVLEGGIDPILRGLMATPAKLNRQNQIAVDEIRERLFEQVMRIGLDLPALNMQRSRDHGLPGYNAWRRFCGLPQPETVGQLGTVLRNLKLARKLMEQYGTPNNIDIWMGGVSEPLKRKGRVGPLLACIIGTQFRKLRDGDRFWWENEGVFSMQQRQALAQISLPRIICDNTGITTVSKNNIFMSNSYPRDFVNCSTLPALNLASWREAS

IC50 [1] [nM] | IC50 [2] [nM] | Structure (SMILES)
1 to 100 | 101 to 999 | Nc1cc(Cc2cnn(Cc3ccc(C(=O)NCc4ccc(=O)[nH]c4)cc3)c2)c2nn[nH]c2n1 [Example 94, 4-{[4-({5-Amino-3H-[1,2,3]triazolo[4,5-b]pyridin-7-yl}methyl)-1H-pyrazol-1-yl]methyl}-N-[(6-oxo-1,6-dihydropyridin-3-yl)methyl]benzamide]
1 to 100 | 101 to 999 | Nc1cc(Cc2cnn(Cc3cccc(CC4CCNCC4)c3)c2)c2nn[nH]c2n1 [Example 207, 7-[(1-{[3-(Piperidin-4-ylmethyl)phenyl]methyl}-1H-pyrazol-4-yl)methyl]-3H-[1,2,3]triazolo[4,5-b]pyridin-5-amine]
1 to 100 | 1 to 100 | NCc1ccc(Cn2cc(Cc3cc(N)nc4[nH]nnc34)cn2)cc1 [Example 250, 7-[(1-{[4-(Aminomethyl)phenyl]methyl}-1H-pyrazol-4-yl)methyl]-3H-[1,2,3]triazolo[4,5-b]pyridin-5-amine]
101 to 999 | 101 to 999 | CN1CCN(CC(=O)NCc2ccc(Cn3cc(Cc4cc(N)nc5[nH]nnc45)cn3)cc2)CC1 [Example 252, N-[(4-{[4-({5-Amino-3H-[1,2,3]triazolo[4,5-b]pyridin-7-yl}methyl)-1H-pyrazol-1-yl]methyl}phenyl)methyl]-2-(4-methylpiperazin-1-yl)acetamide]
1 to 100 | 1 to 100 | COc1ccc(Cn2cc(Cc3cc(N)nc4[nH]nnc34)cn2)cc1 [Example 141, 7-({1-[(4-Methoxyphenyl)methyl]-1H-pyrazol-4-yl}methyl)-3H-[1,2,3]triazolo[4,5-b]pyridin-5-amine]
1 to 100 | 1 to 100 | COc1cccc(Cn2cc(Cc3cc(N)nc4[nH]nnc34)cn2)c1 [Example 97, 7-((1-(3-Methoxybenzyl)-1H-pyrazol-4-yl)methyl)-3H-[1,2,3]triazolo[4,5-b]pyridin-5-amine]
1 to 100 | 101 to 999 | Nc1cc(Cc2cnn(Cc3cccc(C4CCNCC4)c3)c2)c2nn[nH]c2n1 [Example 206, 7-[(1-{[3-(Piperidin-4-yl)phenyl]methyl}-1H-pyrazol-4-yl)methyl]-3H-[1,2,3]triazolo[4,5-b]pyridin-5-amine]
1 to 100 | 101 to 999 | Nc1cc(Cc2cnn(Cc3ccc(C(=O)NCCc4cnc[nH]4)cc3)c2)c2nn[nH]c2n1 [Example 83, 4-{[4-({5-Amino-3H-[1,2,3]triazolo[4,5-b]pyridin-7-yl}methyl)-1H-pyrazol-1-yl]methyl}-N-[2-(1H-imidazol-4-yl)ethyl]benzamide]
1 to 100 | 101 to 999 | Nc1cc(Cc2cnn(Cc3ccc(C(=O)NCc4cn[nH]c4)cc3)c2)c2nn[nH]c2n1 [Example 79, 4-{[4-({5-Amino-3H-[1,2,3]triazolo[4,5-b]pyridin-7-yl}methyl)-1H-pyrazol-1-yl]methyl}-N-(1H-pyrazol-4-ylmethyl)benzamide]
101 to 999 | 101 to 999 | C[C@@H]1CN(c2cccc(Cn3cc(Cc4cc(N)nc5[nH]nnc45)cn3)c2)C[C@H](C)O1 [Example 228, 7-{[1-({3-[cis-2,6-Dimethylmorpholin-4-yl]phenyl}methyl)-1H-pyrazol-4-yl]methyl}-3H-[1,2,3]triazolo[4,5-b]pyridin-5-amine]
101 to 999 | 101 to 999 | Nc1cc(Cc2ccn(-c3ccccc3)n2)c2nn[nH]c2n1 [Example 33, 7-((1-Phenyl-1H-pyrazol-3-yl)methyl)-3H-[1,2,3]triazolo[4,5-b]pyridin-5-amine]
101 to 999 | 101 to 999 | Cc1c(Cc2cc(N)nc3[nH]nnc23)cnn1-c1ccc(F)cc1 [Example 2, 7-((1-(4-Fluorophenyl)-5-methyl-1H-pyrazol-4-yl)methyl)-3H-triazolo[4,5-b]pyridin-5-amine]
1000 to 10000 | 1 to 100 | Nc1cc(Cc2cnn(Cc3ccc4c(c3)NCCC4)c2)c2nn[nH]c2n1 [Example 152, 7-{[1-(1,2,3,4-Tetrahydroquinolin-7-ylmethyl)-1H-pyrazol-4-yl]methyl}-3H-[1,2,3]triazolo[4,5-b]pyridin-5-amine]
1 to 100 | 1 to 100 | CC1CC(c2cccc(Cn3cc(Cc4cc(N)nc5[nH]nnc45)cn3)c2)CCN1 (centres unmarked) [Example 211, 7-[(1-{[3-(2-Methylpiperidin-4-yl)phenyl]methyl}-1H-pyrazol-4-yl)methyl]-3H-[1,2,3]triazolo[4,5-b]pyridin-5-amine]
1 to 100 | 101 to 999 | Nc1cc(Cc2cnn(Cc3ccc(Cl)cc3Cl)c2)c2nn[nH]c2n1 [Example 117, 7-((1-(2,4-Dichlorobenzyl)-1H-pyrazol-4-yl)methyl)-3H-[1,2,3]triazolo[4,5-b]pyridin-5-amine]
1 to 100 | 101 to 999 | Nc1cc(Cc2cnn(Cc3cnn(-c4ccccn4)c3)c2)c2nn[nH]c2n1 [Example 115, 7-((1-((1-(Pyridin-2-yl)-1H-pyrazol-4-yl)methyl)-1H-pyrazol-4-yl)methyl)-3H-[1,2,3]triazolo[4,5-b]pyridin-5-amine]

IC50 [1] [nM] | IC50 [2] [nM] | Structure (SMILES)
1 to 100 | 1 to 100 | Nc1cc(Cc2cnn(Cc3cccc(C4CCNC4)c3)c2)c2nn[nH]c2n1 (stereo in doubt) [Example 191, 7-{[1-({3-[(3S)-Pyrrolidin-3-yl]phenyl}yl]methyl}-3H-[1,2,3]triazolo[4,5-b]pyridin-5-amine]
1 to 100 | 101 to 999 | CC1CCN(S(=O)(=O)c2cccc(Cn3cc(Cc4cc(N)nc5[nH]nnc45)cn3)c2)CC1 [Example 139, 7-{[1-({3-[(4-Methylpiperidin-1-yl)sulfonyl]phenyl}methyl)-1H-pyrazol-4-yl]methyl}-3H-[1,2,3]triazolo[4,5-b]pyridin-5-amine]
1000 to 10000 | 1000 to 10000 | Nc1cc(Cn2nc3ccc(Cl)cc3n2)c2nn[nH]c2n1 [Example 163, 7-[(5-Chloro-2H-1,2,3-benzotriazol-2-yl)methyl]-3H-[1,2,3]triazolo[4,5-b]pyridin-5-amine]
101 to 999 | 1 to 100 | Nc1cc(Cc2cnn(Cc3cccc(N4CCNC(c5ccccc5)C4)c3)c2)c2nn[nH]c2n1 (centres unmarked) [Example 219, 7-[(1-{[3-(3-Phenylpiperazin-1-yl)phenyl]methyl}-1H-pyrazol-4-yl)methyl]-3H-[1,2,3]triazolo[4,5-b]pyridin-5-amine]
1 to 100 | 1 to 100 | CC1CNCCC1c1cccc(Cn2cc(Cc3cc(N)nc4[nH]nnc34)cn2)c1 (centres unmarked) [Example 212, 7-[(1-{[3-(3-Methylpiperidin-4-yl)phenyl]methyl}-1H-pyrazol-4-yl)methyl]-3H-[1,2,3]triazolo[4,5-b]pyridin-5-amine]
101 to 999 | 101 to 999 | CN1CCC(c2cccc(Cn3cc(Cc4cc(N)nc5[nH]nnc45)cn3)c2)CC1 [Example 209, 7-[(1-{[3-(1-Methylpiperidin-4-yl)phenyl]methyl}-1H-pyrazol-4-yl)methyl]-3H-[1,2,3]triazolo[4,5-b]pyridin-5-amine]
1 to 100 | 1 to 100 | Nc1cc(Cc2cnn(Cc3cccc(OC[C@H]4CCCN4)c3)c2)c2nn[nH]c2n1 [Example 243, 7-{[1-({3-[(2R)-Pyrrolidin-2-ylmethoxy]phenyl}methyl)-1H-pyrazol-4-yl]methyl}-3H-[1,2,3]triazolo[4,5-b]pyridin-5-amine]
1 to 100 | 101 to 999 | Nc1cc(Cc2cnn(Cc3ccc4c(c3)OCCO4)c2)c2nn[nH]c2n1 [Example 151, 7-{[1-(2,3-Dihydro-1,4-benzodioxin-6-ylmethyl)-1H-pyrazol-4-yl]methyl}-3H-[1,2,3]triazolo[4,5-b]pyridin-5-amine]
1 to 100 | 101 to 999 | Nc1cc(Cc2cnn(-c3cccc(C(F)(F)F)c3)c2)c2nn[nH]c2n1 [Example 14, 7-((1-(3-(Trifluoromethyl)phenyl)-1H-pyrazol-4-yl)methyl)-3H-[1,2,3]triazolo[4,5-b]pyridin-5-amine]
1 to 100 | 1 to 100 | Nc1cc(Cc2cnn(Cc3ccccc3Cl)c2)c2nn[nH]c2n1 [Example 57, 7-((1-(2-Chlorobenzyl)-1H-pyrazol-4-yl)methyl)-3H-[1,2,3]triazolo[4,5-b]pyridin-5-amine]
101 to 999 | 101 to 999 | Nc1cc(Cc2cc(-c3ccccc3)no2)c2nn[nH]c2n1 [Example 48, 7-((3-Phenylisoxazol-5-yl)methyl)-3H-[1,2,3]triazolo[4,5-b]pyridin-5-amine]
1 to 100 | 101 to 999 | CN1CC[C@@H](Oc2cccc(Cn3cc(Cc4cc(N)nc5[nH]nnc45)cn3)c2)C1 [Example 241, 7-({1-[(3-{[(3R)-1-Methylpyrrolidin-3-yl]oxy}phenyl)methyl]-1H-pyrazol-4-yl}methyl)-3H-[1,2,3]triazolo[4,5-b]pyridin-5-amine]
101 to 999 | 101 to 999 | Nc1cc(Cc2cnn(Cc3cccc(N4CCNCC4Cc4ccccc4)c3)c2)c2nn[nH]c2n1 (centres unmarked) [Example 227, 7-[(1-{[3-(2-Benzylpiperazin-1-yl)phenyl]methyl}-1H-pyrazol-4-yl)methyl]-3H-[1,2,3]triazolo[4,5-b]pyridin-5-amine]
101 to 999 | 1 to 100 | Nc1cc(Cc2cnn(Cc3cccc(N4CCNC5(CCCCC5)C4)c3)c2)c2nn[nH]c2n1 [Example 223, 7-({1-[(3-{1,4-Diazaspiro[5.5]undecan-4-yl}phenyl)methyl]-1H-pyrazol-4-yl}methyl)-3H-[1,2,3]triazolo[4,5-b]pyridin-5-amine]
1 to 100 | 101 to 999 | Cc1nn(-c2ccccc2)nc1Cn1cc(Cc2cc(N)nc3[nH]nnc23)cn1 [Example 114, 7-((1-((5-Methyl-2-phenyl-2H-1,2,3-triazol-4-yl)methyl)-1H-pyrazol-4-yl)methyl)-3H-[1,2,3]triazolo[4,5-b]pyridin-5-amine]
